The source of these data is publication PMC10954736, “The evolutionary origin of naturally occurring intermolecular Diels-Alderases from Morus alba” (Nature Communications, 2024).

pKi: −log10 of the molar value.

By pKi is commonly meant the Ki on a negative log10 scale, so that one unit is a factor of ten. The low end stands for a high Ki, the high end for a low Ki. By stoichiometry N is commonly meant a count of units in the complex or per binding partner.

The target in one assay is T1, ancDADS.
T1 construct: N-terminal 6xHis-SUMO tag, Sf9 baculovirus
The experiment in a line: Lineweaver-Burk, UPLC product quantification. Conditions: competitive against moracin C (20–150 μM); 20 mM Tris-HCl pH 8.0; compound is also an alternative substrate. Type of assay: biochemical.

The target of the next assay is T2, MaDA1 (Morus alba, UniProt A0AAN0NNN7).
T2 construct: N-terminal 6xHis-SUMO tag, Sf9 baculovirus; tag removed by TEV protease for crystallisation; dimer in crystal
T2 sequence (A0AAN0NNN7 24-539 limits assumed): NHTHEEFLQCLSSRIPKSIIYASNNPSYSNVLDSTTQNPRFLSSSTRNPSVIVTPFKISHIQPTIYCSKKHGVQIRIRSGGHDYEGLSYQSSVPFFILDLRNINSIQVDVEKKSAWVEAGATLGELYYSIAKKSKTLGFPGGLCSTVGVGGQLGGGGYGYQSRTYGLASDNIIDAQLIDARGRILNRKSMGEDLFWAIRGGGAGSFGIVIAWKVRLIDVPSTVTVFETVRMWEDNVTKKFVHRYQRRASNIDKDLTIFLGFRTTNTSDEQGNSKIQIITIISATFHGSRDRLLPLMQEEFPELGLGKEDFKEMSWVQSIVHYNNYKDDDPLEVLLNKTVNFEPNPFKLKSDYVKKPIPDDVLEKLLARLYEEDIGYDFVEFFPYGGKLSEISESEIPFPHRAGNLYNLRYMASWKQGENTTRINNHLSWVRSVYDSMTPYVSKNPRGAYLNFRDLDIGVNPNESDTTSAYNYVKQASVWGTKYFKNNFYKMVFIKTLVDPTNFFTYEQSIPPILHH
The experiment in a line: UPLC product assay. The note with it: oxidative cyclisation to moracin D; 20 mM Tris-HCl pH 8.0, 50 °C. Type of assay: biochemical.

For assay [1], the target named is Morus alba Diels-Alderase MaDA1 (Morus alba). Nature of the assay: crystal structure; untagged MaDA1 at about 10 mg/mL, sitting drop vapor diffusion at 18 °C, 0.1 M Bis-Tris pH 5.5, 25% PEG3350.

With `CC(C)=CCc1c(O)ccc(C(=O)/C=C/c2ccc(O)cc2O)c1O` [compound 4, morachalcone A], the pKi on ancDADS was 5.13.
For `CC(C)=CCc1c(O)cc(-c2cc3ccc(O)cc3o2)cc1O` [compound 1, moracin C], the UPLC product assay entry on MaDA1 is “two DAs (MaDA1 and MaDA4) and two DSs (MaDS1 and MaDS6) exhibit functional promiscuity”.
“Morus alba Diels-Alderase MaDA1 (enzyme)” yielded a stoichiometry N in assay [1] of 2.
